Test results taken from patent US20230087609A1, “USE OF A SOLUBLE GUANYLATE CYCLASE (sGC) STIMULATOR OR OF A COMBINATION OF A sGC STIMULATOR AND AN sGC ACTIVATOR FOR CONDITIONS WHEREIN THE HEME GROUP OF sGC IS OXIDIZED OR WHEREIN sGC IS DEFICIENT IN HEME” (Universiteit Maastricht, priority 2020, published 2023).
Where a chain is given by its changes, count along the chain named. Entries after “also recorded” stand apart in the source; their conditions may differ.

Tests used:
[1] = biological target: T1, human sGCa1 and mutant sGCβ1H105F (apo-sGC) in Sf9 cells (Homo sapiens, UniProt Q02153, H105F); experiment: cGMP accumulation in intact Sf9 cells expressing apo-sGC; format: cell-based; conditions: for cGMP formation, sGC stimulator combined with NO donor: 30 micromole/L Bay 41-2272 + 10 micromole/L DETA-NONOate (FIG. 12A, B); for cGMP formation, sGC stimulator only: 30 micromole/L Bay 41-2272 alone (FIG. 12A)
T1 construct: His tag; expressed in transfected cells; host or cells: Sf9 cells co-infected with baculoviruses
T1 sequence (Q02153 1-619 H105F): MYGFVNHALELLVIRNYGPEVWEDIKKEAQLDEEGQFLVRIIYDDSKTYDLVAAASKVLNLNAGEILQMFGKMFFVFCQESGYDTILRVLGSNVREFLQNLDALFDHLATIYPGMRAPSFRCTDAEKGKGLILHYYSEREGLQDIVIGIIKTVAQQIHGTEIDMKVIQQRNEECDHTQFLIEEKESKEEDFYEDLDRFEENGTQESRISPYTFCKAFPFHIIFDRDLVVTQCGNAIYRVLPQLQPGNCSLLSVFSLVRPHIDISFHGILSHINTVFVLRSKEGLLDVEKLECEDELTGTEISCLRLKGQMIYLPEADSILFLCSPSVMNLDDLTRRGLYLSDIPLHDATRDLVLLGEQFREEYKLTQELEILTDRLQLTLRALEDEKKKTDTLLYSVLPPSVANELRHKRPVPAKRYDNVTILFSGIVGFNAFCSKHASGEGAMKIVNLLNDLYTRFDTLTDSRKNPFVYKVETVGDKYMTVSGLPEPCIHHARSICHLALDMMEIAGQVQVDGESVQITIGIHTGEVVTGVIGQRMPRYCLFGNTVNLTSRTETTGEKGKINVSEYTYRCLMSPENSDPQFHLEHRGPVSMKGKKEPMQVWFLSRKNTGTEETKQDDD
T1 sequence (Q02108 1-690 partner): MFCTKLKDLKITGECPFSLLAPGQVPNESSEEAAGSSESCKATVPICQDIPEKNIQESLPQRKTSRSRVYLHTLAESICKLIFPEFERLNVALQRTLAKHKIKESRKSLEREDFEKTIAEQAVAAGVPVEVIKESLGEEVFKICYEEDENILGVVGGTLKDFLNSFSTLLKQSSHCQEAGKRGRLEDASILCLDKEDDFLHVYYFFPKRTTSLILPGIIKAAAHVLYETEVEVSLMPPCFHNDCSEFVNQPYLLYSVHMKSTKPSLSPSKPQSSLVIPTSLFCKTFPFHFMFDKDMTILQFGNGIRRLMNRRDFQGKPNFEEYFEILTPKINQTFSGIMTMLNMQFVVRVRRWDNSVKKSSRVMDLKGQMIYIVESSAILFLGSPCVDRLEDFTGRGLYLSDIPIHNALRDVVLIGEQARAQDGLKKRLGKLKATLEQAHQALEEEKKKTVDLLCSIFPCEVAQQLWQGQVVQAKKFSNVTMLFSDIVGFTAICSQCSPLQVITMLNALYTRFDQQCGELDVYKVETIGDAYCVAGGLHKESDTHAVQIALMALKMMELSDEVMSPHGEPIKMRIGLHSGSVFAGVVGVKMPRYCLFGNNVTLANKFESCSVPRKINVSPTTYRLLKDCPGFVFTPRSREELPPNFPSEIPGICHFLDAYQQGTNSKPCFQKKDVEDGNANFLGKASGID
Method: Sf9 cells were co-infected with baculoviruses expressing human sGCa1 and mutant sGCβ1H105F. Forty-eight hours post-infection, the cells were treated with vehicle, NO donor, sGC stimulator, sGC activator or combination in 2 ml final volume of 10^6 cells per ml then the cells were incubated for 10 min at 27° C. The reaction was terminated by the addition of 0.1M of HCl, and cGMP was extracted on ice for 20 min. Cells were then sonicated to ensure complete lysis. The extract was then centrifuged and used for cGMP determination by an ELISA (Enzo Life Sciences).
Forty-eight hours post-infection, the cells were treated with vehicle, NO donor, sGC stimulator, sGC activator or combination in 2 ml final volume of 10^6 cells per ml and subsequently, the cells were incubated for 10 minutes at 27° C. The reaction was terminated by the addition of 0.1M of HCl, and cGMP was extracted on ice for 20 minutes. Cells were then sonicated to ensure complete lysis. The obtained cell extract was then centrifuged and used for cGMP determination by an ELISA. […] In the absence of any of the NO donor, the sGCs or the combination of these compounds, no cGMP synthesis is detected. It is now for the first time shown by the inventors that apo-sGC is still activatable even in the absence of an sGC activator known in the art. The presence of the sGCs facilitates NO binding to a secondary, heme-independent NO binding-site, and in addition, presence of an NO donor acts synergistically, when cGMP production is considered. Due to the invention, it is now made possible to treat patients with an sGCs, resulting in cGMP formation, under conditions wherein treatment with sGC activators has no effect at all or a too small effect, e.g. under conditions of ischemia, neonatal asphyxia, stroke, hypoxia, acute respiratory distress syndrome, asthma, oxidative (organ and/or tissue and/or cell) damage, etc. The invention provides a new treatment modality for these patients, which are often not sensitive (enough) for sGCa treatment. […] C.

[2] = biological target: T2, purified human sGC treated with ODQ (oxidized heme) (Homo sapiens, UniProt Q02153); experiment: sGC activity of purified human sGC treated with ODQ; format: biochemical; conditions: 10 μM ODQ, 0.3 μM BAY 58-2667 ± 10 μM BAY 41-2272 (FIG. 7A); ODQ concentration series with 30 μM Bay 41-2272 (FIG. 7B)
T2 construct: purchased EnzoLifeScience, Lörrach, Germany
T2 sequence (Q02153 1-619): T1 sequence (Q02153 1-619 H105F) with F105H
T2 sequence (Q02108 1-690 partner): T1 sequence (Q02108 1-690 partner)

For `Nc1nc(-c2nn(Cc3ccccc3F)c3ncccc23)ncc1C1CC1` [BAY 41-2272, 5-cyclopropyl-2-[1-(2-fluoro-benzyl)-1H-pyrazolo[3,4-b]pyridin-3-yl]-pyrimidin-4-ylamine], the “cGMP formation, sGC stimulator combined with NO donor” value ([1]; listed as Bay 41-2272) was “synergistic increase in cGMP formation”, the “cGMP formation, sGC stimulator combined with NO donor” value ([1]; listed as Bay41-2272) was “more than double amount of cGMP; also recorded: synergistic increase in cGMP formation” and the “cGMP formation, sGC stimulator only” value ([1]; listed as Bay 41-2272) was “increase in cGMP formation”. The “cGMP formation, sGC stimulator only” value ([1]; listed as Bay41-2272) was “resulted in cGMP production; also recorded: increase in cGMP formation” and the “sGC activity of sGC with fully oxidized heme on addition of sGC stimulator” value [2] was “still activatable by potentiation”.
